Data as given in patent US8703428B2, “Single-cell label-free assay” (Corning Incorporated, priority 2007, dated 2014).

Target: β2-adrenergic receptor (β2AR) (Homo sapiens, UniProt P07550)
Method: For kinetic assays, the cells were washed with HBSS (Hanks Balanced Salt Solution with 20 mM HEPES) buffer.

β2-adrenergic receptor (β2AR), sequence (P07550 whole entry): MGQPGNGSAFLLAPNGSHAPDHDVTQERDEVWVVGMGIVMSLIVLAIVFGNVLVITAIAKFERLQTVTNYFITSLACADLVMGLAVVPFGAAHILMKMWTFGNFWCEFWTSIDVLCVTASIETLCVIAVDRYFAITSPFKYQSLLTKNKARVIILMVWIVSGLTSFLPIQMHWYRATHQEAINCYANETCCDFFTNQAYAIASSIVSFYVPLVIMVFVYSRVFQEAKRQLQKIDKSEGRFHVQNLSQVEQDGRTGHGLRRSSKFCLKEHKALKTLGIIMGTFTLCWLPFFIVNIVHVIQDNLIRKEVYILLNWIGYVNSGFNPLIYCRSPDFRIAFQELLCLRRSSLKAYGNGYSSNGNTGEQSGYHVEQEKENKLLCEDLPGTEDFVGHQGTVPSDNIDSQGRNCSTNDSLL

CNC[C@H](O)c1ccc(O)c(O)c1 [epinephrine]
epinephrine-induced DMR signal (phases) (A431 cells): a small N-DMR, followed by a significant P-DMR event | epinephrine-induced DMR signal, dose dependence (A431 cells): dose-dependent DMR signal | distribution of DMR signals (P-DMR amplitude, transition time) (quiescent A431 cells, about 100% confluency, 2 nM epinephrine, pixel level): relatively tight distribution and are relatively homogenous
